# Data: patent US11767305B2, “Advantageous benzofuran compositions for mental disorders or enhancement” (Tactogen Inc, priority 2020, dated 2023)
# Entries after “also recorded” stand apart in the source; their conditions may differ.
# Legend:
# neuritogenesis = conditions: cited from earlier work
# 5-HT1B = 5-HT1B (Homo sapiens (Human), UniProt P28222); conditions: cited from earlier work
# [1] = target: T1, serotonin (5-HT) transporter (SERT) (Rattus norvegicus (Rat), UniProt P31652); assay: Rat synaptosome SERT [3H]5-HT release assay; conditions: [3H]5-HT release via SERT EC50 (nM), 5 nM [3H]5-HT
# [2] = target: T1, serotonin (5-HT) transporter (SERT); assay: Rat synaptosome SERT [3H]5-HT uptake inhibition assay; conditions: Inhibition of [3H]5-HT Uptake at SERT IC50 (nM), 5 nM [3H]5-HT
# SERT [3] = target: T2, SERT (Homo sapiens (Human), UniProt P31645); assay: hSERT release assay in CHO cells ([3H]serotonin); conditions: read-out: EC50 SERT (Mean ± SEM), CHO cells expressing hSERT
# healthy human individual = assay: Human effects of non-racemic 5-MAPB, self-reported ratings (Good, Bad, Open); type: in vivo; conditions: averaged from all sessions, 54 mg 5-MAPB HCl oral in two halves
# Protocol: The effects of non-racemic 5-MAPB HCl were tested by a healthy human individual at four different ratios of enantiomers plus the racemate as a control: • 54 mg S and 0 mg R (100% S) • 47 mg Sand 7 mg R (87% S) • 36 mg S and 18 mg R (67% S) • 27 mg S and 27 mg R (50% S) • 7 mg S and 47 mg R (13% S)
# Two trials were carried out at each ratio, except for 13% S where only one was conducted. Trials were at least 72 h apart.
# 5-MAPB HCl was dissolved in 1.5 ml distilled water and consumed in two halves, separated by 1 hour. Starting at 3 hours after administration, tablets of 250 mg ascorbic acid and capsules of 300 mg alpha lipoic acid were taken ad libitum (approximately every hour for a total of 4 administrations).
# Measurements were made approximately every 2 hours until post 6 hours and the maximum ratings per session were analyzed. Additionally, an index of good drug effects versus emotional openness, calculated as (Open−Good)/(200, the theoretical maximum of Open+Good), was constructed at each time point and the maximum analyzed. In healthy volunteers, Good Ratings can be considered a predictor of abuse liability. Accordingly, this index can be used as an indicator of the balance of a therapeutic effect (emotional openness) vs abuse liability.
# Historic data of two trials 50 mg RS-5-MAPB Cl from the same individual were also included in the analysis for comparison.
# MDCKII = assay: In vitro absorption assay, MDCKII permeability; type: in vitro ADME; conditions: 10 μM, pH 7.4/7.4
# Protocol: (§1) The permeability of 10 μM RS-5-MAPB in Caco-2, MDCKII, and MDR1-MDCKII cell line assays was assessed (Table 6). Both the AB and BA directions with and without the addition of a Pgp-specific inhibitor (verapamil), a MRP1 inhibitor (MK571), and an ATP-binding cassette subfamily G member 2 (ABCG2/BCRP) inhibitor (KO143) were measured. Trials were repeated twice, and values averaged.
# MDR1-MDCKII = assay: In vitro absorption assay, MDR1-MDCKII permeability; type: in vitro ADME; conditions: 10 μM
# Protocol: as §1
# DAT [4] = target: T3, DAT (Homo sapiens (Human), UniProt Q01959); assay: hDAT release assay in CHO cells ([3H]dopamine); conditions: read-out: EC50 DAT (Mean ± SEM), CHO cells expressing hDAT
# Caco-2 = assay: In vitro absorption assay, Caco-2 permeability; type: in vitro ADME; conditions: for Permeability (Papp, 10^-6 cm/s) A-B / Permeability (Papp, 10^-6 cm/s) B-A: 10 μM
# Protocol: as §1
# DAT [5] = target: T3, DAT; conditions: read-out: IC50 inhibiting reuptake at DAT; cited from earlier work
# SERT [6] = target: T2, SERT; conditions: read-out: IC50 inhibiting reuptake at SERT; cited from earlier work
# Chain of 5-HT1B (P28222 whole entry, looked up, species assumed): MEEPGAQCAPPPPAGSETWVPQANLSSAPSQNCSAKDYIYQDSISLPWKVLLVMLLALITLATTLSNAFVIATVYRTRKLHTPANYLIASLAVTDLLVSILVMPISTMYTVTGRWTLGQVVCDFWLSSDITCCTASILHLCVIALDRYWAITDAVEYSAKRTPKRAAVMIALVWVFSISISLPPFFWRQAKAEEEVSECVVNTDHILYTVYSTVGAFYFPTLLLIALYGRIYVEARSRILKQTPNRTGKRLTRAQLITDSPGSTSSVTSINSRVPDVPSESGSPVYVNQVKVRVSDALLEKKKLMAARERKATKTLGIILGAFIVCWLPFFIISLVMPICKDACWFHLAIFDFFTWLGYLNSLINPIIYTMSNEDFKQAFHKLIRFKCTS
smiles,measurement,setting,value
CNC(C)Cc1ccc2c(c1)OCO2 (stereo not shown) [MDMA],EC50,neuritogenesis; read-out: EC50 for promoting neuritogenesis,7.41 nM
same,Emax for promoting neuritogenesis,neuritogenesis; relative to ketamine,approximately twice that of ketamine
same,binding to 5-HT1B,5-HT1B,does not bind directly
same,EC50,[1],94.3 ± 13.6 nM
same,IC50,[2],384 ± 32.8 nM
CNC(C)Cc1ccc2occc2c1.Cl (stereo not shown) [RS-5-MAPB],EC50,SERT [3],90 ± 16 nM
same,Bad,healthy human individual; maximum 0-100 rating of bad drug effects,10%
same,Open,healthy human individual; maximum 0-100 rating of emotional openness,45%
same,Good,healthy human individual; maximum 0-100 rating of good drug effects,50%
same,"Permeability (Papp, 10^-6 cm/s) A-B",MDCKII,82.1 10^-6 cm/s
same,"Permeability (Papp, 10^-6 cm/s) B-A",MDCKII,19.8 10^-6 cm/s
same,"Permeability (Papp, 10^-6 cm/s) A-B",MDR1-MDCKII; pH 7.4/7.4,68.7 10^-6 cm/s
same,"Permeability (Papp, 10^-6 cm/s) B-A",MDR1-MDCKII; pH 7.4/7.4,20.5 10^-6 cm/s
same,"Permeability (Papp, 10^-6 cm/s) A-B",MDR1-MDCKII; pH 7.4/7.4 + verapamil,42.8 10^-6 cm/s
same,"Permeability (Papp, 10^-6 cm/s) B-A",MDR1-MDCKII; pH 7.4/7.4 + verapamil,30.4 10^-6 cm/s
same,EC50,DAT [4],459 ± 48 nM
same,"Permeability (Papp, 10^-6 cm/s) A-B","Caco-2; Caco-2, pH 7.4/7.4",81 10^-6 cm/s
same,"Permeability (Papp, 10^-6 cm/s) B-A","Caco-2; Caco-2, pH 7.4/7.4",29.1 10^-6 cm/s
same,"Permeability (Papp, 10^-6 cm/s) A-B","Caco-2; Caco-2, pH 7.4/7.4 + KO143",75.3 10^-6 cm/s
same,"Permeability (Papp, 10^-6 cm/s) B-A","Caco-2; Caco-2, pH 7.4/7.4 + KO143",14 10^-6 cm/s
same,"Permeability (Papp, 10^-6 cm/s) A-B","Caco-2; Caco-2, pH 7.4/7.4 + verapamil",37.6 10^-6 cm/s
same,"Permeability (Papp, 10^-6 cm/s) B-A","Caco-2; Caco-2, pH 7.4/7.4 + verapamil",23 10^-6 cm/s
same,absorption and transport (conclusion from permeability assays),"Caco-2; Caco-2, MDCKII and MDR1-MDCKII",well absorbed; also recorded: actively transported through a mechanism that was inhibited by verapamil
"CNC(C)Cc1ccc2occc2c1 (racemic) [racemic 5-MAPB, 1-(benzofuran-5-yl)-N-methylpropan-2-amine]",IC50,DAT [5],3100 nM
same,IC50,SERT [6],8500 nM
